Results as given in patent US9901525B2, “External use skin composition, containing Lentinula edodes-derived ergosterol” (Amorepacific Corporation, priority 2013, dated 2018).

How the values were obtained:
Melan-a cell [1] = assay: Melanin analysis of melan-a cell (melanin content); format: cell-based, mouse; settings: melan-a cells (FIG. 3); for effect inhibiting the melanin production: 10 μM, corresponds to 4.44 ppm; for effect of inhibiting melanin production: 0.1, 1, 10 μM, 6 days; for skin whitening effect compared with positive controls (50 ppm arbutin, 50 ppm kojic acid): much less amount than the controls
Method: (§1) Melanin-forming cell (melanocyte) derived from C57BL/6J mouse, melan-a cell was cultured by using RPMI-1640 medium (Lonza, USA) with 10% FBS (Fetal Bovine Serum; bovine fetal serum) and 50 U/ml penicillin, 50 μg/ml streptomycin under the condition of 37° C., 10% CO2 and then used in the following experiment.
The Melan-a cell cultured by the method of the Reference Example 2 was seeded on 48 well plate so as to be 1.5×10^4 of the cell number per well and then, cultured for 24 hours. Then, a new medium containing various concentrations (0.1, 1, 10 μM) of 3β, 5α-dihydroxy-6β-methoxy-(22E, 24R)-ergosta-7,22-diene or 3β, 5α, 9α-trihydroxy-(22E, 24R)-ergosta-7,22-diene-6-one isolated from the Reference Example 1 was treated. At this time, in order to compare it, a medium containing 50 ppm of arbutin or 50 ppm of kojic acid was used as a positive control. The medium was treated for 6 days, and after three days, a new medium was exchanged. After 6 days, the cell was washed with DPBS and then, was added with 2N NaOH (10% DMSO) and dissolved at 60° C. for 1 hour. The cell lysate dissolved was moved into 96 well plates and then its absorbance (OD 475) was measured. The measured value was calculated as melanin content from the standard curve for the synthesized melanin, and the melanin content calculated was standardized by the total amount of the protein of each experimental group, and then it was compared with the control to estimate the efficiency. The results are represented in FIG. 3.
In addition, in order to compare the whitening effect of 3β, 5α-dihydroxy-6β-methoxy-(22E, 24R)-ergosta-7,22-diene and 3β, 5α, 9α-trihydroxy-(22E, 24R)-ergosta-7,22-diene-6-one with that of Lentinula edodes extract, the separate melan-a cell melanin assay experiment was performed with the same method as the above. At this time, 50 ppm of arbutin or 12.5, 25, 50, 100 ppm of ethanol extracts of Lentinula edodes obtained from the Reference Example 1 were used, and used by containing them in the medium for the cell culture. The results were represented in FIG. 4.

Melan-a cell [2] = assay: Cytotoxic test (MTT assay), survival rate of cells; format: cell-based, mouse; settings: 50 ppm, melan-a cells (FIG. 2)
Method: as §1
Melan-a cell cultured by the method of the Reference Example 2 was seeded on 96 well plates so as to be 1.0×10^4 of cell number and then, cultured for 24 hours. […] Absorbance (OD 570) was determined by using microplate reader (Product Name: Synergy 2 (BioTek)), and a survival rate of the cell was determined by comparing it with the control. […]
The method similar to the Experimental Example 1 was used, except that 50 ppm arbutin, Lentinula edodes extracts (12.5, 25, 50, 100 ppm) were used as the sample treated. Absorbance (OD 570) was measured by using microplate reader (Product Name: Synergy 2 (BioTek)), and a survival rate of the cell was determined by comparing it with the control. […]

SMILES | effect inhibiting the melanin production (Melan-a cell [1]) | effect of inhibiting melanin production (Melan-a cell [1]) | skin whitening effect compared with positive controls (50 ppm arbutin, 50 ppm kojic acid) (Melan-a cell [1]) | effect on the cell growth (survival rate, MTT) (Melan-a cell [2])
CC(C)[C@@H](C)/C=C/[C@@H](C)[C@H]1CC[C@H]2C3=CC(=O)[C@@]4(O)C[C@@H](O)CC[C@]4(C)[C@@]3(O)CC[C@]12C [3β, 5α, 9α-trihydroxy-(22E, 24R)-ergosta-7,22-diene-6-one] | remarkable effect inhibiting the melanin production | exhibits the effect of inhibiting a melanin production | remarkably excellent skin whitening effect than albumin and kojic acid | –
CO[C@@H]1C=C2[C@@H]3CC[C@H]([C@H](C)/C=C/[C@H](C)C(C)C)[C@@]3(C)CC[C@@H]2[C@@]2(C)CC[C@H](O)C[C@]12O [3β, 5α-dihydroxy-6β-methoxy-(22E, 24R)-ergosta-7,22-diene] | remarkable effect inhibiting the melanin production | exhibits the effect of inhibiting a melanin production | remarkably excellent skin whitening effect than albumin and kojic acid | –
OC[C@H]1O[C@@H](Oc2ccc(O)cc2)[C@H](O)[C@@H](O)[C@@H]1O [arbutin] | – | – | – | did not affect the cell growth
